# Results: patent publication US8952150B2, “Prostaglandin transporter inhibitors and uses thereof” (Albert Einstein College of Medicine of Yeshiva University, priority 2009, dated 2015)
# pIC50: −log10 of the molar value.
# Biological target: rat PGT (Rattus norvegicus (Rat), UniProt Q00910)
# Test: [3H]PGE2 uptake inhibition in MDCK cells stably transfected with rat PGT (percent inhibition and IC50)
# Format: cell-based
# Details: for Inh (% of Ctl) 0.1 μM: 0.1 μM compound; for Inh (% of Ctl) 0.1 μM / Inh (% of Ctl) 0.5 μM / Inh (% of Ctl) 2.5 μM / Inh (% of Ctl) 5 μM / Inh (% of Ctl) 1 μM: inhibition of [3H]PGE2 uptake; for Inh (% of Ctl) 0.5 μM: 0.5 μM compound; for Inh (% of Ctl) 2.5 μM: 2.5 μM compound; for Inh (% of Ctl) 5 μM: 5 μM compound; for pIC50: [3H]PGE2 uptake, MDCK cells stably transfected with rat PGT; for Inh (% of Ctl) 1 μM: 1 μM compound
# How it was run: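 Rat PGT-transfected MDCK cells, on day 4 after seeding, took up [3H]PGE2 in Waymouth buffer at room temperature, with compound (EtOH stock diluted in buffer) added immediately before tracer. Intracellular radioactivity counted after lysis; percent inhibition versus vehicle, IC50 by fitting y=m1−m1*(m0/(m2+m0)).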
Compound,Inh (% of Ctl) 0.1 μM,Inh (% of Ctl) 0.5 μM,Inh (% of Ctl) 2.5 μM,Inh (% of Ctl) 5 μM,pIC50,Inh (% of Ctl) 1 μM
O=C(NCCOCCOCCNc1nc(Nc2ccc(O)cc2)nc(Nc2ccc(C(=O)NCc3ccc(Br)cc3)cc2)n1)c1ccccc1 [compound 109],49.5 % of Ctl,55.6 % of Ctl,59.8 % of Ctl,85.1 % of Ctl,–,–
O=C(NCCOCCOCCNc1nc(Nc2ccc(O)cc2)nc(Nc2ccc(C(=O)NCc3ccccc3F)cc2)n1)c1ccccc1 [compound 110],69.6 % of Ctl,60.6 % of Ctl,78.3 % of Ctl,93.6 % of Ctl,7.50,–
O=C(NCCOCCOCCNc1nc(Nc2ccc(O)cc2)nc(Nc2ccc(C(=O)NCCc3ccccc3)cc2)n1)c1ccccc1 [compound 111],52.2 % of Ctl,59.1 % of Ctl,81.5 % of Ctl,93.2 % of Ctl,–,–
O=C(O)c1ccc(CNC(=O)c2ccc(Nc3nc(NCCOCCOCCNC(=O)c4ccccc4)nc(Nc4ccc(O)cc4)n3)cc2)cc1 [compound 112],–,17.5 % of Ctl,32.2 % of Ctl,49.4 % of Ctl,–,–
O=C(NCCOCCOCCNc1nc(Nc2ccc(O)cc2)nc(Nc2ccc(C(=O)NCc3ccc(C(F)(F)F)cc3)cc2)n1)c1ccccc1 [compound 113],36.8 % of Ctl,49.2 % of Ctl,84.1 % of Ctl,92.4 % of Ctl,–,–
COC(=O)c1ccc(CNC(=O)c2ccc(Nc3nc(NCCOCCOCCNC(=O)c4ccccc4)nc(Nc4ccc(O)cc4)n3)cc2)cc1 [compound 114],41.0 % of Ctl,61.4 % of Ctl,–,–,–,–
O=C(NCCOCCOCCNc1nc(Nc2ccc(O)cc2)nc(Nc2ccc(C(=O)NCC3CCCCC3)cc2)n1)c1ccccc1 [compound 115],54.4 % of Ctl,76.8 % of Ctl,–,–,–,–
O=C(NCCOCCOCCNc1nc(Nc2ccccc2)nc(Nc2ccc(C(=O)NCc3ccccc3)cc2)n1)c1ccccc1 [compound 116],36.4 % of Ctl,59.4 % of Ctl,–,–,–,–
COC(=O)c1ccc(CNc2nc(NCCOCCOCCNC(=O)c3ccccc3)nc(Nc3ccc(C(=O)NCc4ccccc4)cc3)n2)cc1 [compound 117],8.1 % of Ctl,36.7 % of Ctl,–,–,–,–
O=C(NCCOCCNc1nc(Nc2ccc(O)cc2)nc(Nc2ccc(C(=O)NCc3ccccc3)cc2)n1)c1ccccc1 [compound 118],74.2 % of Ctl,90.7 % of Ctl,–,–,7.68,–
CCCCCCNC(=O)c1ccc(Nc2nc(NCCOCCNC(=O)c3ccccc3)nc(Nc3ccc(O)cc3)n2)cc1 [compound 119],57.2 % of Ctl,81.4 % of Ctl,–,–,–,–
CCCCCCNc1nc(Nc2ccc(O)cc2)nc(Nc2ccc(C(=O)NCc3ccccc3)cc2)n1 [compound 120],11.2 % of Ctl,29.1 % of Ctl,–,–,–,–
O=C(O)c1ccc(CNc2nc(NCCOCCOCCNC(=O)c3ccccc3)nc(Nc3ccc(C(=O)NCc4ccccc4)cc3)n2)cc1 [compound 121],1.0 % of Ctl,28.8 % of Ctl,–,–,–,–
COC(=O)Cc1ccc(Nc2nc(NCCOCCOCCNC(=O)c3ccccc3)nc(Nc3ccc(C(=O)NCc4ccccc4)cc3)n2)cc1 [compound 122],5.8 % of Ctl,38.1 % of Ctl,–,–,–,–
CN(c1ccc(O)cc1)c1nc(NCCOCCOCCNC(=O)c2ccccc2)nc(Nc2ccc(C(=O)NCc3ccccc3)cc2)n1 [compound 123],12.0 % of Ctl,36.6 % of Ctl,–,–,–,–
CN(c1ccc(C(=O)NCc2ccccc2)cc1)c1nc(NCCOCCOCCNC(=O)c2ccccc2)nc(Nc2ccc(O)cc2)n1 [compound 124],68.8 % of Ctl,85.4 % of Ctl,–,–,7.47,–

# The remaining lines, values ahead:
Inh (% of Ctl) 0.1 μM,Inh (% of Ctl) 0.5 μM,Inh (% of Ctl) 2.5 μM,Inh (% of Ctl) 5 μM,pIC50,Inh (% of Ctl) 1 μM,Compound
3.2 % of Ctl,24.3 % of Ctl,–,–,–,–,O=C(O)Cc1ccc(Nc2nc(NCCOCCOCCNC(=O)c3ccccc3)nc(Nc3ccc(C(=O)NCc4ccccc4)cc3)n2)cc1 [compound 125]
24.0 % of Ctl,56.3 % of Ctl,–,–,–,70.0 % of Ctl,O=C(NCCOCCOCCNc1nc(Nc2ccc(O)cc2)nc(Nc2ccc(C(=O)NCc3cccc(F)c3F)cc2)n1)c1ccccc1 [compound 126]
17.0 % of Ctl,52.3 % of Ctl,–,–,–,70.2 % of Ctl,O=C(NCCOCCOCCNc1nc(Nc2ccc(O)cc2)nc(Nc2ccc(C(=O)NCc3cc(F)ccc3F)cc2)n1)c1ccccc1 [compound 127]
36.6 % of Ctl,71.8 % of Ctl,–,–,–,82.2 % of Ctl,O=C(NCCOCCOCCNc1nc(Nc2ccc(O)cc2)nc(Nc2ccc(C(=O)NCc3c(F)cccc3F)cc2)n1)c1ccccc1 [compound 128]
8.9 % of Ctl,45.1 % of Ctl,–,–,–,65.6 % of Ctl,O=C(NCCOCCOCCNc1nc(Nc2ccc(O)cc2)nc(Nc2ccc(C(=O)NCc3ccc(F)c(F)c3)cc2)n1)c1ccccc1 [compound 129]
41.6 % of Ctl,73.2 % of Ctl,–,–,–,81.7 % of Ctl,O=C(NCCOCCOCCNc1nc(Nc2ccc(O)cc2)nc(Nc2ccc(C(=O)NCc3cc(F)cc(F)c3)cc2)n1)c1ccccc1 [compound 130]
22.3 % of Ctl,47.0 % of Ctl,–,–,–,74.3 % of Ctl,O=C(NCCOCCOCCNc1nc(Nc2ccc(O)cc2)nc(Nc2ccc(C(=O)NCc3ccc(F)cc3F)cc2)n1)c1ccccc1 [compound 131]
15.0 % of Ctl,22.1 % of Ctl,–,–,–,32.4 % of Ctl,N[C@@H](C(=O)NCCOCCNc1nc(Nc2ccc(O)cc2)nc(Nc2ccc(C(=O)NCc3ccccc3)cc2)n1)c1ccccc1 [compound 132]
4.3 % of Ctl,12.6 % of Ctl,–,–,–,19.4 % of Ctl,N[C@H](Cc1ccccc1)C(=O)NCCOCCNc1nc(Nc2ccc(O)cc2)nc(Nc2ccc(C(=O)NCc3ccccc3)cc2)n1 [compound 133]
14.0 % of Ctl,27.7 % of Ctl,–,–,–,46.7 % of Ctl,O=C(NCc1ccccc1)c1ccc(Nc2nc(NCCOCCNC(=O)c3ccccc3C(F)(F)F)nc(Nc3ccc(O)cc3)n2)cc1 [compound 134]
13.2 % of Ctl,28.4 % of Ctl,–,–,–,49.6 % of Ctl,O=C(NCCOCCNc1nc(Nc2ccc(O)cc2)nc(Nc2ccc(C(=O)NCc3ccccc3)cc2)n1)c1ccncc1 [compound 135]
33.3 % of Ctl,64.1 % of Ctl,–,–,7.62,77.9 % of Ctl,O=C(NCCOCCNc1nc(Nc2ccc(O)cc2)nc(Nc2ccc(C(=O)NCc3ccccc3)cc2)n1)c1ccc(F)cc1 [compound 136]
42.0 % of Ctl,64.9 % of Ctl,–,–,7.44,75.6 % of Ctl,COc1ccc(C(=O)NCCOCCNc2nc(Nc3ccc(O)cc3)nc(Nc3ccc(C(=O)NCc4ccccc4)cc3)n2)cc1 [compound 137]
